Laboratory results reported in patent US20120220520A1, “BIOAVAILABLE COMBINATIONS FOR HCV TREATMENT” (priority 2006, published 2012).
Where “and” joins values, the source holds several entries; their conditions need not be identical. Equal entries are not always repeated.

Assay: In vitro metabolic blocking of HCV NS3/4a protease inhibitors by compound of formula (II) in human liver microsomes
Type: in vitro ADME
Settings: for % Detected Compound, Incubation time: 30′, Compound of formula (II) / % Detected Compound, Incubation time: 120′, Compound of formula (II): 3 μM test compound + 10 μM compound of formula (II); for % Detected Compound, Incubation time: 30′, Compound of formula (II) / % Detected Compound, Incubation time: 120′, Compound of formula (II) / % Detected Compound, Incubation time: 30′, No Booster / % Detected Compound, Incubation time: 120′, No Booster: human liver microsomes 1 mg/ml, 37° C., % of initial concentration; for % Detected Compound, Incubation time: 30′, Compound of formula (II) / % Detected Compound, Incubation time: 30′, No Booster: 30 min; for % Detected Compound, Incubation time: 120′, Compound of formula (II) / % Detected Compound, Incubation time: 120′, No Booster: 120 min; for % Detected Compound, Incubation time: 30′, No Booster / % Detected Compound, Incubation time: 120′, No Booster: 3 μM test compound
Protocol: Different HCV NS3/4a protease inhibitors were tested in a metabolic blocking experiment using 3 μM test compound together with 10 μM of compound of formula (II) acting as a cytochrome P450 inhibitor (or booster).
Test compounds and compound of formula (II) were added to human liver microsomes (protein concentration 1 mg/ml) suspended in potassium phosphate buffer (pH=7.4), to get final reaction mixture concentrations of 3 μM test compound and 10 μM of compound of formula (II). In the non-boosted parallel reactions, compound of formula (II) was not added. Boiled human liver microsomes were used for blank experiments. After addition (in a 1:3 ratio) of a cofactor mixture consisting of β-nicotinamide adenine dinucleotide phosphate (β-NADP, 0.5 mg/ml, 653.2 μM), D-Glucose-6-phosphate (2 mg/ml, 7.1 mM), Glucose-6-phosphate dehydrogenase (1.5 U/ml) in 2% NaHCO3, the reaction mixture was incubated at 37° C. for 30 or 120 minutes after which the reaction was stopped by increasing the temperature to 95° C. Test compound concentrations were determined using HPLC-MS.
Values are percentages of test compound detected after the indicated incubation times as compared to the initial test compound concentration. In Table 3, each value is the mean of the results of two independent experiments. In Table 4, each value is the result of an independent experiment.

[1] = mean of two independent experiments
[2] = each value one independent experiment

For `COc1ccc2c(O[C@@H]3C[C@H]4C(=O)N[C@]5(C(=O)O)C[C@H]5/C=C\CCCCC[C@H](NC(=O)OC5CCCC5)C(=O)N4C3)cc(-c3csc(NC(C)C)n3)nc2c1` [BILN-2061, reference compound], the “% Detected Compound, Incubation time: 30′, Compound of formula (II)” value [1] was 163%, the “% Detected Compound, Incubation time: 120′, Compound of formula (II)” value [1] was 128% and the “% Detected Compound, Incubation time: 30′, No Booster” value (shortened to “% Detected Compound … 30′, No Booster”) [1] was 129%. For the same compound, the “% Detected Compound, Incubation time: 120′, No Booster” value [1] was 76%.
For `COc1ccc2c(O[C@@H]3C[C@H]4C(=O)N[C@]5(C(=O)NS(=O)(=O)C6CC6)C[C@H]5/C=C\CCCCN(C)C(=O)[C@@H]4C3)cc(-c3nc(C(C)C)cs3)nc2c1` [Compound 7], the “% Detected Compound, Incubation time: 30′, Compound of formula (II)” value [1] was 166%, the “% Detected Compound, Incubation time: 120′, Compound of formula (II)” value [1] was 160% and the “% Detected Compound … 30′, No Booster” value [1] was 141%. For the same compound, the “% Detected Compound, Incubation time: 120′, No Booster” value [1] was 48%.
In the case of `COc1ccc2c(O[C@@H]3C[C@H]4C(=O)N[C@]5(C(=O)NS(=O)(=O)C6CC6)C[C@H]5/C=C\CCCCN(C)C(=O)[C@@H]4C3)cc(-c3nc(C(C)C)cs3)nc2c1C` [Compound 13], the “% Detected Compound, Incubation time: 30′, Compound of formula (II)” value [2] was 43% and 83%, the “% Detected Compound, Incubation time: 120′, Compound of formula (II)” value [2] was 51% and 95% and the “% Detected Compound … 30′, No Booster” value [2] was 90% and 87%. The “% Detected Compound, Incubation time: 120′, No Booster” value [2] was 89% and 82%.
In the case of `COc1ccc2c(O[C@@H]3C[C@H]4C(=O)N[C@]5(C(=O)NS(=O)(=O)C6CC6)C[C@H]5/C=C\CCCCCNC(=O)N4C3)cc(-c3nc(C(C)C)cs3)nc2c1` [Compound 18], the “% Detected Compound, Incubation time: 30′, Compound of formula (II)” value [1] was 131%, the “% Detected Compound, Incubation time: 120′, Compound of formula (II)” value [1] was 196% and the “% Detected Compound … 30′, No Booster” value [1] was 42%. The “% Detected Compound, Incubation time: 120′, No Booster” value [1] was 0%.
With `COc1ccc2c(O[C@@H]3C[C@H]4C(=O)N[C@]5(C(=O)NS(=O)(=O)C6CC6)C[C@H]5/C=C\CCCCN(C)C(=O)N4C3)cc(-c3nc(C(C)C)cs3)nc2c1` [Compound 21] the “% Detected Compound, Incubation time: 30′, Compound of formula (II)” value [1] was 151%, the “% Detected Compound, Incubation time: 120′, Compound of formula (II)” value [1] was 135% and the “% Detected Compound … 30′, No Booster” value [1] was 109%. For the same compound, the “% Detected Compound, Incubation time: 120′, No Booster” value [1] was 25%.
In the case of `COc1ccc2c(O[C@@H]3C[C@H]4C(=O)N[C@]5(C(=O)NS(=O)(=O)C6CC6)C[C@H]5/C=C\CCCCCCC(=O)N4C3)cc(-c3nc(C(C)C)cs3)nc2c1` [Compound 26], the “% Detected Compound, Incubation time: 30′, Compound of formula (II)” value [1] was 128%, the “% Detected Compound, Incubation time: 120′, Compound of formula (II)” value [1] was 101% and the “% Detected Compound … 30′, No Booster” value [1] was 16%. For the same compound, the “% Detected Compound, Incubation time: 120′, No Booster” value [1] was 0%.
For `CC(C)CN(C[C@H](O)[C@@H](Cc1ccccc1)NC(=O)OCc1cncs1)S(=O)(=O)c1ccc2nc(N)oc2c1` [compound of formula (II)], the “blocking of test compound metabolisation” value (10 μM compound of formula (II) added to 3 μM test compound, human liver microsomes) was “almost complete blocking”.
